Assay results: article PMC6315005, “5F-Cumyl-PINACA in ‘e-liquids’ for electronic cigarettes: comprehensive characterization of a new type of synthetic cannabinoid in a trendy product including investigations on the in vitro and in vivo phase I metabolism of 5F-Cumyl-PINACA and its non-fluorinated analog Cumyl-PINACA” (Forensic Toxicology, 2018)
Like-named read-outs stand apart in the source and are kept apart here.

Tests used:
CB1 receptors = test system: CB1 receptors; parameters: method as in PMID 28792725; details: mouse AtT-20 neuroblastoma cells, membrane potential; cited from earlier work
CB2 receptors = test system: CB2 receptors; parameters: method as in PMID 28792725; details: mouse AtT-20 neuroblastoma cells, membrane potential; cited from earlier work
CB1 = biological target: T1, CB1 (Homo sapiens, UniProt P21554); test: cAMP biosensor assay with CB1 as target (DiscoveRx); type: cell-based; details: for Curve top: agonist format, 20 µM forskolin; for Emax: read-out: Maximum response (compared to CP-55,940)
T1 construct: purchased DiscoveRx (Fremont, CA, USA)
T1 sequence (P21554 whole entry): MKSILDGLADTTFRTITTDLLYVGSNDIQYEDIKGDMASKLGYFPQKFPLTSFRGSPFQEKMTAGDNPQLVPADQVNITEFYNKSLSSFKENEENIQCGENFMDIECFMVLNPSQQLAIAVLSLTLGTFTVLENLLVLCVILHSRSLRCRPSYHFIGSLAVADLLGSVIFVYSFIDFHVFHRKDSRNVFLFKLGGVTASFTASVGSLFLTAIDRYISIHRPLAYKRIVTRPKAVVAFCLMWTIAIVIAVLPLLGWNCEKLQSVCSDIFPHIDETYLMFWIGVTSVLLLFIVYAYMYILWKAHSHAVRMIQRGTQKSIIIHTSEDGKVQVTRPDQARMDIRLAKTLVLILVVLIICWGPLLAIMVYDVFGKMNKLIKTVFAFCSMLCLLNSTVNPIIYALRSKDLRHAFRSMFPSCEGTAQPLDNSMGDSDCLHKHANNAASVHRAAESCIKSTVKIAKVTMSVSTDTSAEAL
Procedure: Each compound was tested in duplicates; to induce response, 20 µM forskolin was used.

Row | SMILES | potency of CB1 receptor activation compared to CP-55,940 (CB1 receptors) | potency of CB2 receptor activation compared to CP-55,940 (CB2 receptors) | EC50 (CB1) | Curve top (CB1) | Emax (CB1; control ligand CP-55,940) | Emax (CB1)
1 | CCCCn1cc(C(=O)NC(C)(C)c2ccccc2)c2ccccc21 [Cumyl-BICA] | greater potency than CP-55,940 | greater potency than CP-55,940 | – | – | – | –
2 | O=C(c1cccc2ccccc12)c1cn(CCCCCF)c2ccccc12 [AM-2201] | – | – | 0.45 nM | 103 | 101% | –
3 | CC(C)C(NC(=O)c1nn(Cc2ccc(F)cc2)c2ccccc12)C(N)=O (stereo not drawn) [AB-FUBINACA] | – | – | 0.89 nM | 97.4 | 97.8% | –
4 | O=C(c1cccc2ccccc12)c1nn(CCCCCF)c2ccccc12 [THJ-2201] | – | – | 1.68 nM | 95.6 | 91.9% | –
5 | CCCCCn1cc(C(=O)c2cccc3ccccc23)c2ccccc21 [JWH-018] | – | – | 1.13 nM | 97.6 | 97.4% | –
6 | COC(=O)C(NC(=O)c1cn(CC2CCCCC2)c2ccccc12)C(C)(C)C (stereo not drawn) [MDMB-CHMICA] | – | – | 0.14 nM | 94.8 | 94.6% | –
7 | CC(C)C(NC(=O)c1nn(CC2CCCCC2)c2ccccc12)C(N)=O (stereo not drawn) [AB-[…]] | – | – | 0.28 nM | 94.8 | – | 94.8%
8 | CCCCCn1nc(C(=O)NC(C(N)=O)C(C)C)c2ccccc21 (stereo not drawn) [AB-PINACA] | – | – | 1.74 nM | 92.3 | 95.3% | –
9 | CCCCCn1c2ccccc2c2cc(C(=O)c3cccc4ccccc34)ccc21 [EG-018] | – | – | – | 74.3 | 71.8% | –
10 | CC(C)(NC(=O)c1nn(Cc2ccc(F)cc2)c2ccccc12)c1ccccc1 [Cumyl-FUBINACA] | greater potency than CP-55,940 | greater potency than CP-55,940 | – | – | – | –
11 | CC(C)(NC(=O)c1nn(CC2CCCCC2)c2ccccc12)c1ccccc1 | greater potency than CP-55,940 | greater potency than CP-55,940 | – | – | – | –
12 | CCCCn1nc(C(=O)NC(C)(C)c2ccccc2)c2ccccc21 [Cumyl-BINACA] | greater potency than CP-55,940 | greater potency than CP-55,940 | – | – | – | –
13 | CC(C)(NC(=O)c1cn(CC2CCCCC2)c2ccccc12)c1ccccc1 [Cumyl-CHMICA] | greater potency than CP-55,940 | greater potency than CP-55,940 | – | – | – | –
